A word on the inhibition: it is the drop in the measured response relative to a control, in per cent.

For test [1], the target named is T1, CK1α (Homo sapiens, UniProt P48729+Q96SW2).
T1 construct: effects of the compounds of the present disclosure on the expression of target proteins in cells; endogenous in cells; host or cells: human PBMCs (Milecell Biotechnologies)
The test is described as follows: Western blot, degradation of substrate protein in hPBMCs. The format is cell-based.

In test [2] the target is T2, IKZF1 (Homo sapiens, UniProt Q13422+Q96SW2).
T2 construct: effects of the compounds of the present disclosure on the expression of target proteins in cells; endogenous in cells; host or cells: human PBMCs (Milecell Biotechnologies)
The description is as above. Format: cell-based.

For test [3], the target named is T3, IKZF2 (Homo sapiens, UniProt Q96SW2+Q9UKS7).
T3 construct: effects of the compounds of the present disclosure on the expression of target proteins in cells; endogenous in cells; host or cells: human PBMCs (Milecell Biotechnologies)
The description is as above. The format is cell-based.

Test [4] deals with T4, IKZF3 (Homo sapiens, UniProt Q96SW2+Q9UKT9).
T4 construct: effects of the compounds of the present disclosure on the expression of target proteins in cells; endogenous in cells; host or cells: human PBMCs (Milecell Biotechnologies)
The description is as above. Format: cell-based.

Test [5] addresses T5, WEE1 (Homo sapiens, UniProt P30291+Q96SW2).
T5 construct: effects of the compounds of the present disclosure on the expression of target proteins in cells; endogenous in cells; host or cells: human PBMCs (Milecell Biotechnologies)
The description is as above. The format is cell-based.

The test system of test [6] is GSPT1. Described as above. Format: cell-based, Human.
In test [7] the target is T6, human Cereblon WT GST-tagged protein (Homo sapiens, UniProt Q96SW2).
T6 construct: purchased CISBIO 64BDCRBNPEH
In words: CRBN-binding affinity, HTRF (CEREBLON BINDING kit). The conditions noted are these: for inhibition at 0.5 µM: read-out: Inhibition Rate at 0.5 µM (%); for inhibition at 2 µM: read-out: Inhibition Rate at 2 µM (%). Background: TR-FRET usually uses a lanthanide donor and a delayed reading to cut background.

In test [8] the test system is Human breast cancer cell (MCF-7). In words: Tumor cell proliferation inhibition (CellTiter-Meiluncell luminescent cell viability assay). To be noted: MCF7, 96 h; for inhibition at 0.01 µM: read-out: Inhibition Rate at 10 nM (%); for inhibition at 0.5 µM: read-out: Inhibition Rate at 500 nM (%).
Test [9] concerns Human multiple myeloma cell (MM.1S). Described as above. The conditions noted are these: for inhibition at 0.01 µM / inhibition at 0.5 µM: Homo sapiens, MM1.S, 96 h; for inhibition at 0.01 µM: read-out: Inhibition Rate at 10 nM (%); for inhibition at 0.5 µM: read-out: Inhibition Rate at 500 nM (%).
Experimental: The tumor cells used herein were cultured in a cell culture medium listed in table 2 at 37°C in an incubator with 5% CO2. Prior to experimentation, all cell lines used were correctly identified by STR profiling, and tested negative for mycoplasma contamination using a mycoplasma detection kit through routine screenings.
The IC50 values of the compounds of the present disclosure (including the compounds in Table 1 and Examples) were determined using the CellTiter-Meiluncell Luminescent Cell Viability Assay Kit from Dalian Meilun Biotech Co., Ltd. The detailed procedure is as follows: Tumor cells were seeded in 96-well cell culture plates at the densities specified in Table 3. On the following day, the test compounds of the present disclosure were subjected to serial dilution. The dilution can be performed according to one of the following two methods: • (1) The first dilution method: The test compounds of the present disclosure (including the compounds in Table 1 and Examples) were subjected to 5-fold serial dilutions starting from a highest concentration of 2000 µM, resulting in a total of 9 concentrations from high to low (2000, 400, 80, 16, 3.2, 0.64, 0.128, 0.0256, 0.00512 µM). Subsequently, 0.5 µL of the test compound dilution was transferred into the 96-well plate containing the cells, with each well containing 100 µL of cell culture medium. […] Into the 96-well plate, the diluted test compounds and corresponding detection reagents were added, resulting in final test compound concentrations of 500 nM and 10 nM, respectively. The experimental procedure is described below using the diluted 2 µM test compound as an example.
0.5 µL of the aforementioned diluted compound of the present disclosure (including the compounds in Table 1 and Examples) was added to the seeded cells in 100 µL of medium, yielding a final test compound concentration of 10 nM. After the cells were treated with the compounds of the present disclosure for a specified period, the cell viability assay reagent was added to the culture medium according to the kit's instructions to determine cell viability. […] All controls were treated using the same procedure as the compounds of the present disclosure. The growth inhibition curves for the compounds of the present disclosure were plotted using Prism GraphPad software, and the IC50 values were calculated therefrom.
The test system of test [10] is Human acute T lymphocytic leukemia cell (Molt4). The test is described as above. The conditions noted are these: MOLT-4, 96 h; for inhibition at 0.01 µM: read-out: Inhibition Rate at 10 nM (%); for inhibition at 0.5 µM: read-out: Inhibition Rate at 500 nM (%).
Test [11] deals with Human myeloid monocytic leukemia cell (MV-4-11). The description is as above. The conditions noted are these: MV4-11, 96 h; for inhibition at 0.01 µM: read-out: Inhibition Rate at 10 nM (%); for inhibition at 0.5 µM: read-out: Inhibition Rate at 500 nM (%).
Setting [12] is: Western blot, 24 hours of compound treatment, compounds tested at 50 nM and 500 nM (concentration for the table not stated).
[13] abbreviates: 24 hours treatment, compounds at 50 nM and 500 nM (concentration behind the class not stated).

T6 sequence (Q96SW2 whole entry): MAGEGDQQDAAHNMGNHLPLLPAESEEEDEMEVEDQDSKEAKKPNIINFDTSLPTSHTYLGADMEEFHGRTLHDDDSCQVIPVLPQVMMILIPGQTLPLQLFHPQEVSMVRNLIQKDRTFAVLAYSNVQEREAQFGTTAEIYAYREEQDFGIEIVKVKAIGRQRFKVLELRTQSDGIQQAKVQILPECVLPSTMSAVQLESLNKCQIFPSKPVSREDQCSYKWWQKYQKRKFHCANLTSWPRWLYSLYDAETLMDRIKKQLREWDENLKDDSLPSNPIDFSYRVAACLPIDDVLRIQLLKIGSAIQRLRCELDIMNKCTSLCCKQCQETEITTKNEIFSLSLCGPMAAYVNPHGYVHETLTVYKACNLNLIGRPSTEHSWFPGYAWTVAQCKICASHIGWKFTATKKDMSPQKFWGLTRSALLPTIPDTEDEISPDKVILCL
T1 sequence (P48729 whole entry): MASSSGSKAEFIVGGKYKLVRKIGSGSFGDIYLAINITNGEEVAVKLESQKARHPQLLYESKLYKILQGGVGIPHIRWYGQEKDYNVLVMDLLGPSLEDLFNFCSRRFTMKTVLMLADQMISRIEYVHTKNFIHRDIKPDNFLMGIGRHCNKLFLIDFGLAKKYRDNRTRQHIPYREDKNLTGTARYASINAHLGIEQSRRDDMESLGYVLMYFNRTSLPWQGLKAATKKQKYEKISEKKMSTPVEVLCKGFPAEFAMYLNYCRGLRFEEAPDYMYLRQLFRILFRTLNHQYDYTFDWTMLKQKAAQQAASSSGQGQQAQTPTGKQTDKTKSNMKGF
T1 sequence (Q96SW2 whole entry): as the sequence (Q96SW2 whole entry) above
T1 sequence (Q16531 whole entry partner): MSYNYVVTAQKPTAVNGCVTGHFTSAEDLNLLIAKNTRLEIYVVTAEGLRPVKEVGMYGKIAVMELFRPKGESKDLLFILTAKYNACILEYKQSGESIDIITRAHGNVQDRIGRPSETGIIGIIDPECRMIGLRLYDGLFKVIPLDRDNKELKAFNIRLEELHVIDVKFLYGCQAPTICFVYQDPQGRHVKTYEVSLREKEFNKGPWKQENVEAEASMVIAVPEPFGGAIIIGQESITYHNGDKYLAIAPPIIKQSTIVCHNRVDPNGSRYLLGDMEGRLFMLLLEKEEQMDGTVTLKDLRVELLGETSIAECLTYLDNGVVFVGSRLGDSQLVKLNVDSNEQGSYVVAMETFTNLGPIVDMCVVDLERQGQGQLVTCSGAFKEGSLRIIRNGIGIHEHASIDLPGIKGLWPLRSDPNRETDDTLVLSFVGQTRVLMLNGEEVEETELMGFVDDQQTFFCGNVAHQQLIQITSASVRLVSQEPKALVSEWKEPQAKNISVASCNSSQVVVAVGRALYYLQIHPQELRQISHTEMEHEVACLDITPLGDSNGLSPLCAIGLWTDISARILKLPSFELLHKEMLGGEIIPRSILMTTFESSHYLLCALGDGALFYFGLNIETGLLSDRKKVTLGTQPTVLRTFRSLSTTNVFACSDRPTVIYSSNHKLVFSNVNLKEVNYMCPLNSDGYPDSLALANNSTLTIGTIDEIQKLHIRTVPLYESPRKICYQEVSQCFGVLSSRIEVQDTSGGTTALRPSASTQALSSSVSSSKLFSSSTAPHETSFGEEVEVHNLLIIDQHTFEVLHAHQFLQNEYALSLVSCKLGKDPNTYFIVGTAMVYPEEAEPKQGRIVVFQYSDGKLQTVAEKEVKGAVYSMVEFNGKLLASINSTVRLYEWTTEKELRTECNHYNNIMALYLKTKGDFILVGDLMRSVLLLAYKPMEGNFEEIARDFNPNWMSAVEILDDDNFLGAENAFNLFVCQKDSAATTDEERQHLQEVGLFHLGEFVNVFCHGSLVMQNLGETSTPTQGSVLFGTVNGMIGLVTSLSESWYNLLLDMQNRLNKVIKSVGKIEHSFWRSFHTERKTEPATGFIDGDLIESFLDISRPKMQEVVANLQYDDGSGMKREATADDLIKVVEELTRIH
T3 sequence (Q9UKS7 whole entry): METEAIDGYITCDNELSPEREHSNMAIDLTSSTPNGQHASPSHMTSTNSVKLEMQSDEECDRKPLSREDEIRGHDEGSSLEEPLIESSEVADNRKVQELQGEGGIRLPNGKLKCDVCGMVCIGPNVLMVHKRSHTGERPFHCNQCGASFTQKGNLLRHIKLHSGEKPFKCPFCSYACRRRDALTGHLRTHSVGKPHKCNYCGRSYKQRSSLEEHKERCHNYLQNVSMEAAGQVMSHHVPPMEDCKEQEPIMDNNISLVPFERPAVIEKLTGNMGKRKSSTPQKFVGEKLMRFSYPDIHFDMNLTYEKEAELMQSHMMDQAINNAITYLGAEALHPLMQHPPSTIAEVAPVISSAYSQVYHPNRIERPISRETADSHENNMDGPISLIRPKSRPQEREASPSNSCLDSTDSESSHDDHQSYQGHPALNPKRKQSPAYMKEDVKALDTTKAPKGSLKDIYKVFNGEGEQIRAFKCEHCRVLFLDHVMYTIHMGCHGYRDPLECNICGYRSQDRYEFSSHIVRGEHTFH
T3 sequence (Q96SW2 whole entry): as the sequence (Q96SW2 whole entry) above
T3 sequence (Q16531 whole entry partner): as the sequence (Q16531 whole entry partner) above
T2 sequence (Q13422 whole entry): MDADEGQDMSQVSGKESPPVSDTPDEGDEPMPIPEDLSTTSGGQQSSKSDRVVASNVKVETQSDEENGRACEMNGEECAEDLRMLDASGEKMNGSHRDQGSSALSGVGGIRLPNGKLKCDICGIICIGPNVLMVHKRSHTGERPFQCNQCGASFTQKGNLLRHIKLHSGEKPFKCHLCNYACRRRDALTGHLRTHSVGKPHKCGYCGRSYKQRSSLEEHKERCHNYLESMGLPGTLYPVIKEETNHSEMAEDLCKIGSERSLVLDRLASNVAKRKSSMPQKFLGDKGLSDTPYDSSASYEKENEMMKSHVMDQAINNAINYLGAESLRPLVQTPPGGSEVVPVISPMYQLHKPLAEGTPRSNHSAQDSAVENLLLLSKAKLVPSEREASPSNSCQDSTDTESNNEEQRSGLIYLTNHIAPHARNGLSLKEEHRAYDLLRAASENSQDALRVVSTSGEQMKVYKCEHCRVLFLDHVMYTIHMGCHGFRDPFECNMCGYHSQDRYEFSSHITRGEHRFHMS
T2 sequence (Q96SW2 whole entry): as the sequence (Q96SW2 whole entry) above
T2 sequence (Q16531 whole entry partner): as the sequence (Q16531 whole entry partner) above
T4 sequence (Q9UKT9 whole entry): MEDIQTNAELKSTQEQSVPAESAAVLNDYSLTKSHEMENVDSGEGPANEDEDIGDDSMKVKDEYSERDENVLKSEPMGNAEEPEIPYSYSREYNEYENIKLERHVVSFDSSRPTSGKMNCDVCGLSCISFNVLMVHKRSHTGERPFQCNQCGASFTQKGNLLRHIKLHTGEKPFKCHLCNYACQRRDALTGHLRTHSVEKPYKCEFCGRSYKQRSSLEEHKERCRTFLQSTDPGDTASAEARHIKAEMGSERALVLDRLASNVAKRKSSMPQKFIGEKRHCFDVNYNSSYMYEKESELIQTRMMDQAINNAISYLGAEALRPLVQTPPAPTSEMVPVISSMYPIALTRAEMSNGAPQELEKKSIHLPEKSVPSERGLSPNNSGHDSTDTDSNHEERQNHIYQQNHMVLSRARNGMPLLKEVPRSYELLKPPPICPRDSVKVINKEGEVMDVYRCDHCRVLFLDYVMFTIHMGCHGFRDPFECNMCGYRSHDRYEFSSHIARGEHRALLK
T4 sequence (Q96SW2 whole entry): as the sequence (Q96SW2 whole entry) above
T4 sequence (Q16531 whole entry partner): as the sequence (Q16531 whole entry partner) above
T5 sequence (P30291 whole entry): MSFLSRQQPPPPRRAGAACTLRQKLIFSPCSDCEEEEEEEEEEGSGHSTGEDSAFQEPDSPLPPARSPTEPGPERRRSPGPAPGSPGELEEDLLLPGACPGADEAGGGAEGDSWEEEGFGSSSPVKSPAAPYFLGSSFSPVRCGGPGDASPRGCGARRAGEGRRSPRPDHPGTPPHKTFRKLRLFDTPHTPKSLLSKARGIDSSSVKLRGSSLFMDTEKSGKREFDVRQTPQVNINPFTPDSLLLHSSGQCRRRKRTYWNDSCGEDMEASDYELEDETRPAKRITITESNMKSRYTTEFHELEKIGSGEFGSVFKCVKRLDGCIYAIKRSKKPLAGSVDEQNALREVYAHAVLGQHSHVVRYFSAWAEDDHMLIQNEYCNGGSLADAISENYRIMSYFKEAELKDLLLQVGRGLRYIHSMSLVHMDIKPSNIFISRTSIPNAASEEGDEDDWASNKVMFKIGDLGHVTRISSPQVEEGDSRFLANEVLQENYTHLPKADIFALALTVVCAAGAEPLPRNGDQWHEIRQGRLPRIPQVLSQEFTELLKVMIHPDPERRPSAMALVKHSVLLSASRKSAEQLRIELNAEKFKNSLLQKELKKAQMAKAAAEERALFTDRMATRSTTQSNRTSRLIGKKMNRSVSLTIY
T5 sequence (Q96SW2 whole entry): as the sequence (Q96SW2 whole entry) above
T5 sequence (Q16531 whole entry partner): as the sequence (Q16531 whole entry partner) above

As to `O=C1CCC(N2Cc3c(CN4CCC(n5c(=O)[nH]c6cc(F)ccc65)CC4)cccc3C2=S)C(=O)N1` (stereo not shown) [GT-08843, 3-(4-((4-(5-fluoro-2-oxo-2,3-dihydro-1H-benzo[d]imidazol-1-yl)piperidin-1-yl)methyl)-1-thioxoisoindolin-2-yl)piperidine-2,6-dione], in test [1] (setting [12]), the “CK1α substrate protein remaining %” value is recorded as “B (80%< substrate protein remaining %≤ 100%)”. Further, in test [2] (setting [12]), the “IKZF 1 substrate protein remaining %” value is “B (80%< substrate protein remaining %≤ 100%)”. Further, the “IKZF2 substrate protein remaining %” value in [3] (setting [12]) is “B (80%< substrate protein remaining %≤ 100%)”. Also, the “IKZF3 substrate protein remaining %” value in test [4] (setting [12]) is “B (80%< substrate protein remaining %≤ 100%)”. Besides, the “Wee1 substrate protein remaining %” value in [5] (setting [12]) is “A (0% ≤ substrate protein remaining % ≤ 80%)”. Further, the “GSPT1 substrate protein remaining %” value in test [6] (setting [12]) is reported as “B (80%< substrate protein remaining %≤ 100%)”. In addition, in test [7], the inhibition at 0.5 µM lay within 60 to 80% and the inhibition at 2 µM lay in the range of 80 to 100%. Besides, in [8], the inhibition at 0.01 µM was in the range of 60 to 70% and the inhibition at 0.5 µM was in the range of 60 to 70%.
For the molecule `O=C1CCC(N2Cc3c(CN4CC=C(c5n[nH]c6cc(F)ccc56)CC4)cccc3C2=S)C(=O)N1` (stereo not shown) [GT-08850, 3-(4-((4-(6-fluoro-1H-indazol-3-yl)-3,6-dihydropyridin-1(2H)-yl)methyl)-1-thioxoisoindolin-2-yl)piperidine-2,6-dione], the “CK1α substrate protein remaining %” value in [1] (setting [12]) is given as “B (80%< substrate protein remaining %≤ 100%)”. Moreover, the “IKZF 1 substrate protein remaining %” value in test [2] (setting [12]) is listed as “B (80%< substrate protein remaining %≤ 100%)”. Moreover, the “IKZF2 substrate protein remaining %” value in test [3] (setting [12]) is reported as “B (80%< substrate protein remaining %≤ 100%)”. Also, the “IKZF3 substrate protein remaining %” value in [4] (setting [12]) is “B (80%< substrate protein remaining %≤ 100%)”. Moreover, the “Wee1 substrate protein remaining %” value in test [5] (setting [12]) is reported as “B (80%< substrate protein remaining %≤ 100%)”. In addition, in test [6] (setting [12]), the “GSPT1 substrate protein remaining %” value is reported as “A (0% ≤ substrate protein remaining % ≤ 80%)”. Moreover, in test [7], the inhibition at 0.5 µM was 60 to 80% and the inhibition at 2 µM was in the range of 80 to 100%. Also, in [8], the inhibition at 0.01 µM fell in the range of 40 to 50% and the inhibition at 0.5 µM fell in the range of 50 to 60%.
`O=C1CCC(N2Cc3c(CN4CC(n5cnc6cc(F)ccc65)C4)cccc3C2=S)C(=O)N1` (stereo not shown) [GT-08861, 3-(4-((3-(5-fluoro-1H-benzo[d]imidazol-1-yl)azetidin-1-yl)methyl)-1-thioxoisoindolin-2-yl)piperidine-2,6-dione]: the “CK1α substrate protein remaining %” value in test [1] (setting [13]) was “B (80%< substrate protein remaining %≤ 100%)”. Besides, the “IKZF 1 substrate protein remaining %” value in [2] (setting [13]) is listed as “B (80%< substrate protein remaining %≤ 100%)”. Besides, the “IKZF2 substrate protein remaining %” value in test [3] (setting [13]) is “B (80%< substrate protein remaining %≤ 100%)”. Further, in test [4] (setting [13]), the “IKZF3 substrate protein remaining %” value is given as “B (80%< substrate protein remaining %≤ 100%)”. Also, the “Wee1 substrate protein remaining %” value in [5] (setting [13]) was “A (0% ≤ substrate protein remaining % ≤ 80%)”. The “GSPT1 substrate protein remaining %” value in [6] (setting [13]) is given as “B (80%< substrate protein remaining %≤ 100%)”. For the same molecule, in test [7], the inhibition at 0.5 µM was 40 to 53% and the inhibition at 2 µM was in the range of 80 to 100%. In addition, in [8], the inhibition at 0.01 µM was 30 to 40% and the inhibition at 0.5 µM fell in the range of 40 to 50%.
For the molecule `Cc1nc(C2CCN(Cc3cccc4c3CN(C3CCC(=O)NC3=O)C4=S)CC2)c2c(-c3ccccc3)csc2n1` (stereo not shown) [GT-08931, 3-(4-((4-(2-methyl-5-phenylthieno[2,3-d]pyrimidin-4-yl)piperidin-1-yl)methyl)-1-thioxoisoindolin-2-yl)piperidine-2,6-dione], in test [7], the inhibition at 0.5 µM was 40 to 53% and the inhibition at 2 µM lay within 80 to 100%. Moreover, in test [8], the inhibition at 0.01 µM fell in the range of 30 to 40% and the inhibition at 0.5 µM is 60 to 70%.
For the molecule `O=C1CCC(N2Cc3cc(CN4CCN(c5nccc(Cl)c5Br)CC4)ccc3C2=S)C(=O)N1` (stereo not shown) [GT-09245, 3-(5-((4-(3-bromo-4-chloropyridin-2-yl)piperazin-1-yl)methyl)-1-thioxoisoindolin-2-yl)piperidine-2,6-dione], the “CK1α substrate protein remaining %” value in test [1] (setting [13]) was “B (80%< substrate protein remaining %≤ 100%)”. Also, the “IKZF 1 substrate protein remaining %” value in [2] (setting [13]) is reported as “A (0% ≤ substrate protein remaining % ≤ 80%)”. In addition, the “IKZF2 substrate protein remaining %” value in [3] (setting [13]) was “A (0% ≤ substrate protein remaining % ≤ 80%)”. Besides, the “IKZF3 substrate protein remaining %” value in [4] (setting [13]) is listed as “B (80%< substrate protein remaining %≤ 100%)”. Further, the “Wee1 substrate protein remaining %” value in test [5] (setting [13]) is on record as “B (80%< substrate protein remaining %≤ 100%)”. The “GSPT1 substrate protein remaining %” value in test [6] (setting [13]) is recorded as “A (0% ≤ substrate protein remaining % ≤ 80%)”. In addition, the inhibition at 0.5 µM in test [7] fell in the range of 60 to 80%; in test [9], 70 to 80%; in [10] it was 50 to 60%; in [11], 80 to 100%. The inhibition at 2 µM in [7] lay in the range of 80 to 100%. For the same molecule, the values for the inhibition at 0.01 µM in test [9], in test [10] and in test [11] were 40 to 50%, 10 to 20% and 60 to 80%, respectively.
With `O=C1CCC(N2Cc3cc(CN4CCC(c5c[nH]c6ncccc56)CC4)ccc3C2=S)C(=O)N1` (stereo not shown) [GT-09268, 3-(5-((4-(1H-pyrrolo[2,3-b]pyridin-3-yl)piperidin-1-yl)methyl)-1-thioxoisoindolin-2-yl)piperidine-2,6-dione], in test [1] (setting [13]), the “CK1α substrate protein remaining %” value is “B (80%< substrate protein remaining %≤ 100%)”. The “IKZF 1 substrate protein remaining %” value in test [2] (setting [13]) is on record as “B (80%< substrate protein remaining %≤ 100%)”. Also, the “IKZF2 substrate protein remaining %” value in test [3] (setting [13]) is “B (80%< substrate protein remaining %≤ 100%)”. For the same molecule, the “IKZF3 substrate protein remaining %” value in test [4] (setting [13]) is reported as “B (80%< substrate protein remaining %≤ 100%)”. Moreover, the “Wee1 substrate protein remaining %” value in test [5] (setting [13]) was “B (80%< substrate protein remaining %≤ 100%)”. In addition, in test [6] (setting [13]), the “GSPT1 substrate protein remaining %” value is on record as “A (0% ≤ substrate protein remaining % ≤ 80%)”. In addition, the inhibition at 0.5 µM lay in the range of 53 to 60% in test [7], 40 to 50% in test [10] and 60 to 80% in test [11]. Also, the inhibition at 2 µM in test [7] lay in the range of 80 to 100%. Also, the inhibition at 0.01 µM in test [9] is 30 to 40%; in test [10] it was 40 to 50%; in test [11], 5 to 10%. The “Inhibition Rate at 500 nM (%)” value in [9] (MM.1S, 500 nM, 96 hours) is recorded as “la7”.
As to `O=C1CCC(N2Cc3cc(CN4CCC(c5n[nH]c6cc(F)ccc56)CC4)ccc3C2=S)C(=O)N1` (stereo not shown) [GT-09269, 3-(5-((4-(6-fluoro-1H-indazol-3-yl)piperidin-1-yl)methyl)-1-thioxoisoindolin-2-yl)piperidine-2,6-dione], in [1] (setting [13]), the “CK1α substrate protein remaining %” value is “B (80%< substrate protein remaining %≤ 100%)”. Moreover, the “IKZF 1 substrate protein remaining %” value in test [2] (setting [13]) is recorded as “B (80%< substrate protein remaining %≤ 100%)”. Besides, in test [3] (setting [13]), the “IKZF2 substrate protein remaining %” value is “B (80%< substrate protein remaining %≤ 100%)”. The “IKZF3 substrate protein remaining %” value in test [4] (setting [13]) is “B (80%< substrate protein remaining %≤ 100%)”. Also, in test [5] (setting [13]), the “Wee1 substrate protein remaining %” value was “B (80%< substrate protein remaining %≤ 100%)”. Besides, in test [6] (setting [13]), the “GSPT1 substrate protein remaining %” value is on record as “A (0% ≤ substrate protein remaining % ≤ 80%)”. Moreover, the inhibition at 0.5 µM in [7], in test [9], in [10] and in test [11] was 80 to 100% throughout. Also, the inhibition at 2 µM in test [7] was in the range of 80 to 100%. For the same molecule, the inhibition at 0.01 µM fell in the range of 5 to 10% in test [9], 30 to 40% in test [10] and 10 to 18% in [11].
